# Experimental data from article PMC10578352, “Identification of a Protein Arginine Methyltransferase 7 (PRMT7)/Protein Arginine Methyltransferase 9 (PRMT9) Inhibitor” (Journal of Medicinal Chemistry, 2023).
# What was measured:
# [1] = target: T1, human recombinant PRMT9 (Homo sapiens, UniProt Q6P2P2); assay: AlphaLISA PRMT9 activity assay (modified BPS kit, biotinylated SF3B2 peptide); type: biochemical; settings: for IC50: PRMT9 0.105 μM, biotinylated SF3B2 (500–519) peptide 100 nM, SAM 25 μM
# T1 construct: human recombinant PRMT9 (2–845; N-terminal FLAG-tag, C-terminal His6-tag); FLAG (N); His6 (C); purchased BPS BioScience 79124
# T1 sequence (Q6P2P2 2-845): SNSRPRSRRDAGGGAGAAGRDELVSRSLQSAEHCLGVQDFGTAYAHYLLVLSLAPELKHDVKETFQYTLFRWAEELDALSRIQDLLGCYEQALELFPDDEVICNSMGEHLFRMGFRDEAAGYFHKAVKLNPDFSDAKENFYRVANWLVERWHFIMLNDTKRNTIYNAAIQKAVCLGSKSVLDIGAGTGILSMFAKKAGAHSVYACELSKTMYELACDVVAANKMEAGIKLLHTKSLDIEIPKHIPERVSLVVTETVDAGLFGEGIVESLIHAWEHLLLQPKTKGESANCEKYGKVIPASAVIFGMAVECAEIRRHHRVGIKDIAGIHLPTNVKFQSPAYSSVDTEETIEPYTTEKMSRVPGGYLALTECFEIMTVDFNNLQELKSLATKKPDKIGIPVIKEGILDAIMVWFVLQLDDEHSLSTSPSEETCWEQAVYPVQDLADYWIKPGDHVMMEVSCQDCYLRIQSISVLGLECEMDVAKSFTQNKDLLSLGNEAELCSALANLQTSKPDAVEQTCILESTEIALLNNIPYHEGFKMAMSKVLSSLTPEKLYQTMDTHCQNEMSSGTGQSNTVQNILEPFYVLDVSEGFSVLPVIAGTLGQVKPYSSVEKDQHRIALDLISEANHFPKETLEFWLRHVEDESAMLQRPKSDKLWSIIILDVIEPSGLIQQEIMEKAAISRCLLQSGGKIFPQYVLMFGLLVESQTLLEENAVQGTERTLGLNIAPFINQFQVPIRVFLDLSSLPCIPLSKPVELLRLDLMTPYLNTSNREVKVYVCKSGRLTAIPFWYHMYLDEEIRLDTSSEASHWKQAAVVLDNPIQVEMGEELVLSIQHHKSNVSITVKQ
# Method: Accordingly, all the enzymatic inhibition data were obtained by performing the assays in these optimized conditions.
# The reaction was incubated for 60 min. Afterward, in each well, 5 μL of a 1:100 dilution of Primary antibody 28 (BPS BioScience, #52140Z3) in Detection buffer (BPS BioScience) and 5 μL of anti-Rabbit acceptor beads (PerkinElmer, #AL104C) were added to obtain a final concentration of 20 μg/mL.
# For each incubation step, the OptiPlate was sealed with a protective foil to prevent evaporation and contamination. Donor and Acceptor beads were added to the mixture in subdued light.
# The 100% activity (positive control) was reached using vehicle (DMSO), while 0% activity (negative control) was obtained without the protein. Data were analyzed by using Excel and Prism software. Values obtained for each compound are mean ± SD determined for three separate experiments.
# [2] = set-up: method as in PMID 35482954; settings: cited from earlier work
# [3] = tested on: PRMT4-catalyzed arginine methylation in MCF-7 cells; set-up: method as in PMID 35482954; settings: cited from earlier work
# [4] = tested on: MCF-7 cells; set-up: method as in PMID 35482954; settings: cited from earlier work
# [5] = target: T2, PRMT1 (Homo sapiens, UniProt Q99873); assay: HotSpot radioisotope-based filter assay, PRMT1; type: biochemical; settings: 5 μM histone H4, 3H-SAM 1 μM
# T2 construct: PRMT1 (residues 2–371, C-terminus); with an N-terminal GST-tag; GST (N); purchased Reaction Biology Corporation
# Method: (§1) Then, ^3H-SAM (final concentration of 1 μM) was delivered into the reaction mixture to initiate the reaction. After incubation for 60 min at 30 °C, the reaction mixture was delivered to filter-paper for detection (as assessed by scintillation). Data were analyzed using Excel and GraphPad Prism 6.0 software (GraphPad Software Inc., San Diego, CA) for IC50 curve fits using sigmoidal dose vs response - variable slope (four parameters) equations.
# [6] = target: T3, PRMT3 (Homo sapiens, UniProt O60678); assay: HotSpot radioisotope-based filter assay, PRMT3; type: biochemical; settings: 5 μM histone H4, 3H-SAM 1 μM
# T3 construct: PRMT3 (residues 2–531, C-terminus); with an N-terminal His-tag; His (N); purchased Reaction Biology Corporation
# Method: as §1
# [7] = target: T4, PRMT4 (Homo sapiens, UniProt Q86X55); assay: HotSpot radioisotope-based filter assay, PRMT4; type: biochemical; settings: 5 μM histone H3, 3H-SAM 1 μM
# T4 construct: PRMT4 (residues 2–608, C-terminus); with an N-terminal GST-tag; GST (N); purchased Reaction Biology Corporation
# T4 sequence (Q86X55 2-608): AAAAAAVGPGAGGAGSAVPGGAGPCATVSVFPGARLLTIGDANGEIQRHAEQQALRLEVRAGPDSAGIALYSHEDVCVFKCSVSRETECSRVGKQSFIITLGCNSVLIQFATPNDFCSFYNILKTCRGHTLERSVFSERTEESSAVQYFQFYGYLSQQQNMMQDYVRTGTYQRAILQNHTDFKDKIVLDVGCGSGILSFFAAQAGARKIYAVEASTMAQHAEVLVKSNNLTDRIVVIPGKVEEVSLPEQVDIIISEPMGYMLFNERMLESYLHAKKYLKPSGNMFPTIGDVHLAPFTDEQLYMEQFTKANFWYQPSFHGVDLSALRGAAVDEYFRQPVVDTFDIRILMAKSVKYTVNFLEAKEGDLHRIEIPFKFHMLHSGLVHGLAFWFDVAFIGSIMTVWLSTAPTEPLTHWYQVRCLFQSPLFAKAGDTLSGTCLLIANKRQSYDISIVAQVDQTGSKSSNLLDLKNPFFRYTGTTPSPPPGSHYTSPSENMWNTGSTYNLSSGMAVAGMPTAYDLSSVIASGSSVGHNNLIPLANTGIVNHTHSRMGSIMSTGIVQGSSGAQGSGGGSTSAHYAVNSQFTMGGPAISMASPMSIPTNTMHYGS
# Method: as §1
# [8] = target: T5, PRMT5/MEP50 complex (Homo sapiens, UniProt O14744); assay: HotSpot radioisotope-based filter assay, PRMT5; type: biochemical; settings: 5 μM histone H2A, 3H-SAM 1 μM
# T5 construct: residues PRMT5 2–637, C-terminus, and MEP50 2–342, C-terminus; FLAG (N); purchased Reaction Biology Corporation
# Method: as §1
# [9] = target: T6, PRMT6 (Homo sapiens, UniProt Q96LA8); assay: HotSpot radioisotope-based filter assay, PRMT6; type: biochemical; settings: 5 μM GST-GAR, 3H-SAM 1 μM
# T6 construct: PRMT6 (residues 2–375, C-terminus); with an N-terminal GST-tag; GST (N); purchased Reaction Biology Corporation
# Method: as §1
# [10] = target: T7, PRMT7 (Homo sapiens, UniProt Q9NVM4); assay: HotSpot radioisotope-based filter assay, PRMT7; type: biochemical; settings: 5 μM GST-GAR, 3H-SAM 1 μM
# T7 construct: PRMT7 (residues 2–692, C-terminus); with an N-terminal His-tag; His (N); purchased Reaction Biology Corporation
# T7 sequence (Q9NVM4 2-692): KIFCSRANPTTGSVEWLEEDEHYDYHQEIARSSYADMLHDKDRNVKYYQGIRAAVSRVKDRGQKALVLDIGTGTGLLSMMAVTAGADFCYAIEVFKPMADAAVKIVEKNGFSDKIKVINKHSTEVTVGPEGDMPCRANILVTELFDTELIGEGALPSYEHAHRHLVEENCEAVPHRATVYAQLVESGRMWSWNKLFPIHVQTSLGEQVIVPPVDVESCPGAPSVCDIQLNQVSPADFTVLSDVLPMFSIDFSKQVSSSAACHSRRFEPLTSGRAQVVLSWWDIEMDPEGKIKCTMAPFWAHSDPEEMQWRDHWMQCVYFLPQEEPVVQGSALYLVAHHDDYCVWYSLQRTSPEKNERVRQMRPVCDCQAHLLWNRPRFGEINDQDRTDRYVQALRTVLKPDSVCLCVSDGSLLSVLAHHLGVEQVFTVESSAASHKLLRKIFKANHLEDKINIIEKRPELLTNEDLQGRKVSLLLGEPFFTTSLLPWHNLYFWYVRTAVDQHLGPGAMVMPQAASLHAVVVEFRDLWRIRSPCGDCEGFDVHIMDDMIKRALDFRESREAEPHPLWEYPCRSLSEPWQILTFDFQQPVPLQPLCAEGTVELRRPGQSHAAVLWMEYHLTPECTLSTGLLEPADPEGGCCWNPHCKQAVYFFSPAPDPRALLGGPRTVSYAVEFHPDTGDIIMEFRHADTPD
# Method: as §1
# [11] = target: T8, PRMT8 (Homo sapiens, UniProt Q9NR22); assay: HotSpot radioisotope-based filter assay, PRMT8; type: biochemical; settings: 5 μM histone H4, 3H-SAM 1 μM
# T8 construct: (residues 61–394, C-terminus); with C- and N-terminal His-tags; His (N); His (C); purchased Reaction Biology Corporation
# Method: as §1
# T8 sequence (Q9NR22 61-394): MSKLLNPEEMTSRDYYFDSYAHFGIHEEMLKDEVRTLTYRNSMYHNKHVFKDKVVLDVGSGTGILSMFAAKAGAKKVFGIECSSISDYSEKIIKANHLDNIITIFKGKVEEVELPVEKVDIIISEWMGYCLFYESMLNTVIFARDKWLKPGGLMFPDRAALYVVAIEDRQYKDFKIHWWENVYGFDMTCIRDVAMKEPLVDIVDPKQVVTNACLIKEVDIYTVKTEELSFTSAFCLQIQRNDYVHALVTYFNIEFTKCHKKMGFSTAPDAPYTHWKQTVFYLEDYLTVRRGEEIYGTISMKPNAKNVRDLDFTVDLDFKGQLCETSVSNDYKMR
# T3 sequence (O60678 2-531): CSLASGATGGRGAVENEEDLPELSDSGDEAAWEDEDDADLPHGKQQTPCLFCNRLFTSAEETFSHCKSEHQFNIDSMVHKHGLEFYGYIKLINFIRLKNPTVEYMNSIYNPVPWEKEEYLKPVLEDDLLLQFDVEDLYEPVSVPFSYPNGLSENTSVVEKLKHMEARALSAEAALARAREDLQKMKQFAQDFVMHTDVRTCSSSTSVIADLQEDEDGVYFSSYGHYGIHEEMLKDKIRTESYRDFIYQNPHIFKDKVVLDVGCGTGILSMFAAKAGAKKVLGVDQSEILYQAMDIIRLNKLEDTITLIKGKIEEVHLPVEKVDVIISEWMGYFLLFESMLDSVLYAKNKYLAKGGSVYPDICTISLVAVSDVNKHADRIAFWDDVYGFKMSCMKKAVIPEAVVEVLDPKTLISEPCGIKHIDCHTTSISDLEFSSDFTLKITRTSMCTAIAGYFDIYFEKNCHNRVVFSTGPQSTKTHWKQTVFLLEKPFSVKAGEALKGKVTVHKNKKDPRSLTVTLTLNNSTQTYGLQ
# T6 sequence (Q96LA8 2-375): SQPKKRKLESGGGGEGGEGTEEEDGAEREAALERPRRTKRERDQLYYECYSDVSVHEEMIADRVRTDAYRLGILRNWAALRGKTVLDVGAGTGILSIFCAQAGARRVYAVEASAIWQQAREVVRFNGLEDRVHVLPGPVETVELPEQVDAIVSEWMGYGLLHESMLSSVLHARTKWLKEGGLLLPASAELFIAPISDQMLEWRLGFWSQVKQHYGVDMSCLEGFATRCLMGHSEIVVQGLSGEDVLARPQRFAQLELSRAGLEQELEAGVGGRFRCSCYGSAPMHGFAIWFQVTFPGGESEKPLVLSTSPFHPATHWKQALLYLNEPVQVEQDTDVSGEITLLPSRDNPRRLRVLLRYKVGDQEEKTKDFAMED
# T2 sequence (Q99873 2-371): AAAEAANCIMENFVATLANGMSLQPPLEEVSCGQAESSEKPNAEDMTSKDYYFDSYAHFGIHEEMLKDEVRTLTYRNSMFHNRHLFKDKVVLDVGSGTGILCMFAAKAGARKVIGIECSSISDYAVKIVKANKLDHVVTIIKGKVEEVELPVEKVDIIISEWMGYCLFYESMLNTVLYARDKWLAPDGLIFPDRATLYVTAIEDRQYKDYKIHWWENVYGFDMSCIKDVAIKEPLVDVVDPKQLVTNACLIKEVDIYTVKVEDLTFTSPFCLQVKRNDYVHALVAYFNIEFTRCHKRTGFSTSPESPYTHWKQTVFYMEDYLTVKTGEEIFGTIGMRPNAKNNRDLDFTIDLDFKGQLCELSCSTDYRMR
# T5 sequence (O14744 2-637): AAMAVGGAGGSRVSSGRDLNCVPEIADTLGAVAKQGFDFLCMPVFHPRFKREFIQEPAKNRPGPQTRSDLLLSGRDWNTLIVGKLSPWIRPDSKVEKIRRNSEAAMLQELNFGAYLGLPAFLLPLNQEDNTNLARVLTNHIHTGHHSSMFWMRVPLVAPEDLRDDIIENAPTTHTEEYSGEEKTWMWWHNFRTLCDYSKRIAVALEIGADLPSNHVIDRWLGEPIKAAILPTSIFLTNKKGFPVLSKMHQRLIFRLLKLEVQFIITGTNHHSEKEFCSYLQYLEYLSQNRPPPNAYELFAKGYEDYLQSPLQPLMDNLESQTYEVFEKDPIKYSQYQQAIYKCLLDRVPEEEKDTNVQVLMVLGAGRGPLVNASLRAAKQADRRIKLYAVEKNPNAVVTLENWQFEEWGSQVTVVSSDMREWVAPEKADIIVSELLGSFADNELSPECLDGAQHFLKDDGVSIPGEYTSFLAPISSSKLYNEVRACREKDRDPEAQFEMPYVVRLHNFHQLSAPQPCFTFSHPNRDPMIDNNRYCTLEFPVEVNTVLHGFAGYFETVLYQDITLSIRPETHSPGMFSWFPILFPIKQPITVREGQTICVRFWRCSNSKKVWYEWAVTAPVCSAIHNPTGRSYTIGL
# T5 sequence (Q9BQA1 2-342 partner limits assumed): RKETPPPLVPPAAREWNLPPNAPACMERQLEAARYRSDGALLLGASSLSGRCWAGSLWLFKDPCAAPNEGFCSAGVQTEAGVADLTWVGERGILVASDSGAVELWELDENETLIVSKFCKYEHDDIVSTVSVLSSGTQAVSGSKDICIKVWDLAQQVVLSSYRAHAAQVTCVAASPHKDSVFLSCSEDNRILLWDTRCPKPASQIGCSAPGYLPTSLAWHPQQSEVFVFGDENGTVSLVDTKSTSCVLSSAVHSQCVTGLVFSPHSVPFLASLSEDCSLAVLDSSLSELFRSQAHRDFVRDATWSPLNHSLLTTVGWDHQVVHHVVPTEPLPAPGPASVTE
smiles,measurement,setting,value
COC(=O)c1cc(O)c2cc(NC(=O)NCCCCNC(=N)NC/C=C/[C@H]3O[C@@H](n4cnc5c(N)ncnc54)[C@H](O)[C@@H]3O)ccc2c1 [1h],IC50,[1],9.3 µM
same,cell permeability,[2],low
same,PRMT4-catalyzed arginine methylation levels,[3],evident reduction
same,proliferation,[4],marked reduction
"COC(=O)c1cc(O)c2cc(NC(=O)NCCNC(=N)NC[C@H]3O[C@@H](n4cnc5c(N)ncnc54)[C@H](O)[C@@H]3O)ccc2c1 [1i, Methyl 6-(3-(2-(3-(((2R,3S,4R,5R)-5-(6-Amino-9H-purin-9-yl)-3,4-dihydroxytetrahydrofuran-2-yl)methyl)guanidino)ethyl)ureido)-4-hydroxy-2-naphthoate]",reduction in potency against PRMT9 compared to 1a,[1]; AlphaLISA IC50 values,3 fold
same,IC50,[1],2.47 µM
same,IC50,[5],> 100 µM
same,IC50,[6],> 100 µM
same,IC50,[7],22.8 µM
same,IC50,[8],9.4 µM
same,IC50,[9],70 µM
same,IC50,[10],0.54 µM
same,IC50,[11],42 µM
